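48-hour exposure; five concentrations; linearly interpolated endpoints. GI50 is the concentration that inhibits growth by half.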 The source made the active and inactive calls. No stated cut-off is given here; in the data, active = GI50 up to about 1.1 µM and inactive = higher.
Tests used:
Experiment in all cases: DTP human tumour cell line panel, 48 h
SNB-19 = tested on: SNB-19
MDA-MB-435 = tested on: MDA-MB-435
SW-620 = tested on: SW-620
HCC 2998 = tested on: HCC 2998
Malme-3M = tested on: Malme-3M
M14 = tested on: M14
UACC-257 = tested on: UACC-257
786-0 = tested on: 786-0
SN12C = tested on: SN12C
NCI-H23 = tested on: NCI-H23
A549 = tested on: A549
OVCAR-8 = tested on: OVCAR-8
RPMI-8226 = tested on: RPMI-8226
UACC-62 = tested on: UACC-62
NCI-H226 = tested on: NCI-H226
UO-31 = tested on: UO-31
DU-145 = tested on: DU-145
MCF7 = tested on: MCF7
MOLT-4 = tested on: MOLT-4
OVCAR-3 = tested on: OVCAR-3

Measured: GI50

Cc1cc(=O)oc2cc(O)c(CN(C)CC(=O)O)cc12
inactive: SNB-19 > 100 µM | MDA-MB-435 > 100 µM | SW-620 > 100 µM | HCC 2998 > 100 µM | Malme-3M > 100 µM | M14 > 100 µM | UACC-257 > 100 µM | 786-0 > 100 µM | SN12C > 100 µM | NCI-H23 > 100 µM | A549 > 100 µM | OVCAR-8 > 100 µM | RPMI-8226 > 100 µM | UACC-62 > 100 µM | NCI-H226 > 100 µM | UO-31 > 100 µM | DU-145 > 100 µM | MCF7 > 100 µM

CCC1OC2C(CC=C(C)C)=C3OC(C)(O)C(C)(CC)C(=O)C3=C3OC(=O)C=C1C32 (stereo not given)
inactive: SNB-19 27.4 µM | MDA-MB-435 31.4 µM | SW-620 27.5 µM | HCC 2998 34.8 µM | M14 27.7 µM | UACC-257 26.8 µM | 786-0 25.4 µM | NCI-H23 28.4 µM | A549 22.6 µM | RPMI-8226 19.2 µM | UACC-62 20.7 µM | MOLT-4 20.2 µM | NCI-H226 25.9 µM | UO-31 15.3 µM | DU-145 58.6 µM | MCF7 27.9 µM

Cc1nc(-[n+]2nc(-c3ccncc3)nn2-c2ccccc2)sc1C
inactive: SNB-19 35.9 µM | MDA-MB-435 23.4 µM | SW-620 20.2 µM | HCC 2998 > 100 µM | Malme-3M > 100 µM | M14 49.3 µM | UACC-257 26.7 µM | 786-0 19.1 µM | SN12C 49.4 µM | NCI-H23 57.9 µM | A549 30.3 µM | OVCAR-8 42.9 µM | RPMI-8226 68.1 µM | UACC-62 8.36 µM | MOLT-4 4.72 µM | NCI-H226 32.1 µM | UO-31 7.73 µM | DU-145 36.2 µM | MCF7 18.6 µM

CCOC(=O)c1ccc(NC(NC(=O)CC)(C(F)(F)F)C(F)(F)F)cc1
inactive: SNB-19 > 100 µM | MDA-MB-435 > 100 µM | SW-620 > 100 µM | HCC 2998 > 100 µM | Malme-3M > 100 µM | M14 > 100 µM | UACC-257 > 100 µM | 786-0 > 100 µM | OVCAR-3 > 100 µM | NCI-H23 > 100 µM | A549 > 100 µM | OVCAR-8 > 100 µM | RPMI-8226 > 100 µM | UACC-62 34.4 µM | MOLT-4 55.5 µM | NCI-H226 > 100 µM | UO-31 36.2 µM | DU-145 > 100 µM | MCF7 > 100 µM

O=C1C[C@H]2[C@@H](O1)[C@@H](O)CN1C(=O)c3ccccc3[C@H]21
inactive: SNB-19 > 100 µM | MDA-MB-435 > 100 µM | SW-620 > 100 µM | HCC 2998 > 100 µM | Malme-3M > 100 µM | M14 > 100 µM | UACC-257 > 100 µM | 786-0 > 100 µM | SN12C > 100 µM | NCI-H23 > 100 µM | A549 > 100 µM | OVCAR-8 > 100 µM | RPMI-8226 > 100 µM | UACC-62 > 100 µM | MOLT-4 > 100 µM | NCI-H226 > 100 µM | UO-31 > 100 µM | DU-145 > 100 µM | MCF7 > 100 µM

CCOC(=O)c1c(O)cc(=O)[nH]c1N1CCOCC1
inactive: SNB-19 > 100 µM | MDA-MB-435 > 100 µM | SW-620 > 100 µM | HCC 2998 > 100 µM | M14 > 100 µM | UACC-257 > 100 µM | 786-0 > 100 µM | SN12C > 100 µM | OVCAR-3 > 100 µM | NCI-H23 > 100 µM | A549 > 100 µM | OVCAR-8 > 100 µM | RPMI-8226 > 100 µM | UACC-62 > 100 µM | MOLT-4 > 100 µM | NCI-H226 > 100 µM | UO-31 > 100 µM | DU-145 > 100 µM | MCF7 > 100 µM

Reference: ChEMBL document CHEMBL1201862, “PubChem BioAssay data set” (2004)
